The results in this text go back to patent publication US12653774B2, “Topical compositions and methods for using same” (MARY KAY INC., priority 2022, dated 2026).

Molecules are shown by their SMILES.

In this assay the target is T1, TRPV-1 (Rattus norvegicus, UniProt O35433).
T1 construct: host or cells: PC 12 cells
The assay can be described thus: Capsaicin induced TRPV-1 mediated calcium flux assay (Fura-2AM) in PC 12 cells. The format is cell-based. The procedure:
Briefly, Ca^2+ influx was used as a measure of TRPV-1 activity. PC 12 cells (ATCC CRL-1721) were pre-incubated for 4 hours at 37° C. with the respective noted compounds (e.g., plankton extract (test), or capsazepine (positive control)). Following pre-incubation, treatment media was removed and cells were incubated with 100 μl of 0.67 μM Fura-2-acetoxymethyl ester ((Fura-2AM), a high affinity, intracellular calcium indicator that is ratiometric and UV light—excitable) for 1 hour at 37° C. After incubation, cells were treated with 200 μM of capsaicin to induce TRPV-1 mediated Ca^2+ flux response and fluorescence readings were taken every 7 seconds for 10 minutes at 360/460 nm. Data was normalized to controls, plotted as shown, and area under the curve (AUC) values were determined (see Table 2).
Briefly, Ca^2+ influx was used as a measure of TRPV-1 activity. PC 12 cells (ATCC CRL-1721) were pre-incubated for 4 hours at 37° C. with the respective test compounds. Following pre-incubation, treatment media was removed and cells were incubated with 100 μl of 0.67 μM Fura-2AM for 1 hour at 37° C. After incubation, cells were treated with 200 μM of capsaicin to induce TRPV-1 mediated Ca^2+ flux response and fluorescence readings were taken every 7 seconds for 10 minutes at 360/460 nm. Data was normalized to controls, plotted as shown, and AUC values were determined (see Table 2).
Ingredient samples were analyzed for their ability to inhibit calcium flux production in PC 12 cells (ATCC CRL-1721). PC 12 cells were maintained and passaged according to the manufacturer's recommended guidelines. For experiments, 1×10^5 cells/well were plated in 96 well black flat bottom plates. Fura-2-Acetoxymethyl ester (Fura-2AM) calcium detection assay kit (Cayman Chemical #14591) was used to detect calcium in the cells post treatment. Capsaicin (Sigma #M202) was used to trigger a response, and capsazepine (Sigma #C191) was used as a positive control. In brief, Ca2^+ influx was used as a measure of TRPV-1 activity. PC 12 cells (ATCC CRL-1721) were pre-incubated for 4 hours at 37° C. with the respective test compounds. Following pre-incubation, treatment media was removed and cells were incubated with 100 μl of 0.67 μM Fura-2AM for 1 hour at 37° C. After incubation, cells were treated with 200μM of capsaicin to induce TRPV-1 mediated Ca^2+ flux response and fluorescence readings were taken every 7 seconds for 10 minutes at 360/460 nm. Following the test period, buffer was removed and 100 μl diluted MTS reagent was added to each well. Cells were incubated for 15 to 30 minutes at 37° C. 5% CO2, and plates were then read at 490 nm. Cell viability was assessed prior to analyzing for calcium flux.
Fluorescence test data was normalized to controls to generate area under the curve (AUC) values. For each control and test, fluorescence arbitrary units (AU) were normalized to controls for timepoints 0, and 0.5-9 minutes. The normalized data was plotted on an XY graph using GraphPad Prism software to generate a calcium flux curve, with time on the X axis, and normalized AU on the Y axis. The AUC was then calculated for the untreated control, and net AUC was determined for each test and control condition.
A general note: Calcium assays in cells follow changes in intracellular calcium, usually with a dye or a luminescent sensor.

Where [1] appears, read: 400 μM, pre-incubation 4 hours, then 200 μM capsaicin, positive control.

T1 sequence (O35433 whole entry): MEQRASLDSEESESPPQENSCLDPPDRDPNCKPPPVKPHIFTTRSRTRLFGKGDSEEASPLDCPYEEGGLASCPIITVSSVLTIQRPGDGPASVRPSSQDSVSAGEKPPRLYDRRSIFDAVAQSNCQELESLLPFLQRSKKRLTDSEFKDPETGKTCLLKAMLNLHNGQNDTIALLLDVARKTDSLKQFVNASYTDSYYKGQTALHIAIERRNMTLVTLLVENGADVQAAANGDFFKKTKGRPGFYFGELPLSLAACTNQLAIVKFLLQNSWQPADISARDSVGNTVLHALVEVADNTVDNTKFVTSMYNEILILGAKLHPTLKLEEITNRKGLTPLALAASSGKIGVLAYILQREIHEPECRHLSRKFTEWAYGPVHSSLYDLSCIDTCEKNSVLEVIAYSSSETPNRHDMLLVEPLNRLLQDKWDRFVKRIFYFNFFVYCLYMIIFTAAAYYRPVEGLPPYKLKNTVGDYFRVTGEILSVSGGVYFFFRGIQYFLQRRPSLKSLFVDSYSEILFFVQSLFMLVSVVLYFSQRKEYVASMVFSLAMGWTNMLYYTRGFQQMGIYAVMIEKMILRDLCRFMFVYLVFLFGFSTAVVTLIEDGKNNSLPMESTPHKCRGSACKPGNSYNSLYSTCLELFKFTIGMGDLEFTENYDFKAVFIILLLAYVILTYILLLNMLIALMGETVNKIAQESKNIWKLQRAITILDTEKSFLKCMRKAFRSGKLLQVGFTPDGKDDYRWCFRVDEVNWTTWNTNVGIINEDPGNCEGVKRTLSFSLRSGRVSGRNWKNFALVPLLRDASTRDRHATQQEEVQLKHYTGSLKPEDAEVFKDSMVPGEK

`COc1cc(CNC(=O)CCCC/C=C/C(C)C)ccc1O` [Capsaicin]: the “Delta compared to untreated” value (200 μM, net AUC vs untreated baseline 9.009, negative control) came to 0.944. Also, for the setting “200 μM, normalized Ca2+ flux curve, PC 12 cells, negative control”, the AUC was 9.953. The “Percentage activity compared to positive control” value (200 μM, relative to capsazepine 400 μM, negative control) is reported as −453.56%.
Regarding `Oc1cc2c(cc1O)CN(C(=S)NCCc1ccc(Cl)cc1)CCC2` [Capsazepine, capsazepine], under setting [1], the AUC came to 8.742 and the “Delta compared to untreated” value was −0.267. The “Percentage activity compared to positive control” value (400 μM, the positive control itself) is “NA (0) %”.
